{"source": "paper PMC5218480", "about": "(PLoS ONE, 2017)", "test_system": "MV-4-11 cells", "assay": "Gene expression microarray analysis (Affymetrix PrimeView) and GSEA", "format": "cell-based, human", "conditions": "gene C12orf56; ACY-1035 1 mM; LIST F", "data": [{"compound": "Nc1ccc(-c2cccs2)cc1NC(=O)c1ccc2c(c1)cc(C1CC1)n2CCN1CCOCC1", "note": "[ACY-1035]", "values": [{"measurement": "RFU, C12orf56 (ProbeSet 11735607_a_at)", "result": 71.19, "unit": "RFU"}]}]}
